How the values were obtained:
[1] = test system: Septoria nodorum; experiment: Test D: wheat glume blotch, preventive spray on wheat seedlings; assay type: in vivo; settings: Parastagonospora nodorum, 216 h, wheat seedlings sprayed to run-off, inoculated next day, rated after 48 h + 7 days, read-out: Percentage Disease Control Test D
Excerpt: General protocol for preparing test suspensions for Tests A-G: the test compounds were first dissolved in acetone in an amount equal to 11% of the final volume and then suspended at the desired concentration (in ppm) in acetone and purified water (50/50 mix by volume) containing 250 ppm of the surfactant Trem® 014 (polyhydric alcohol esters). The resulting test suspensions were then used in Tests A-G. Spraying a 200 ppm test suspension to the point of run-off on the test plants was the equivalent of a rate of 800 g/ha. The test suspension was sprayed to the point of run-off on wheat seedlings. The following day the seedlings were inoculated with a spore suspension of Septoria nodorum (the causal agent of wheat glume blotch) and incubated in a saturated atmosphere at 20° C. for 48 h, and then moved to a growth chamber at 20° C. for 7 days, after which time disease ratings were visually made. Results for Tests A-G are given in Table A. In the Table, a rating of 100 indicates 100% disease control and a rating of 0 indicates no disease control (relative to the controls). A dash (-) indicates no test results. All results are for 200 ppm except where followed by an “*”, which indicates 40 ppm.

[2] = test system: Alternaria solani; experiment: Test G: tomato early blight, preventive spray on tomato seedlings; assay type: in vivo; settings: Alternaria solani, topical, 168 h, tomato seedlings sprayed to run-off, inoculated next day, rated after 48 h + 5 days, read-out: Percentage Disease Control Test G
Excerpt: General protocol for preparing test suspensions for Tests A-G: the test compounds were first dissolved in acetone in an amount equal to 11% of the final volume and then suspended at the desired concentration (in ppm) in acetone and purified water (50/50 mix by volume) containing 250 ppm of the surfactant Trem® 014 (polyhydric alcohol esters). The resulting test suspensions were then used in Tests A-G. Spraying a 200 ppm test suspension to the point of run-off on the test plants was the equivalent of a rate of 800 g/ha. The test suspension was sprayed to the point of run-off on tomato seedlings. The following day the seedlings were inoculated with a spore suspension of Alternaria solani (the causal agent of tomato early blight) and incubated in a saturated atmosphere at 27° C. for 48 h, and then moved to a growth chamber at 24° C. for 5 days, after which time disease ratings were visually made. Results for Tests A-G are given in Table A. In the Table, a rating of 100 indicates 100% disease control and a rating of 0 indicates no disease control (relative to the controls). A dash (-) indicates no test results. All results are for 200 ppm except where followed by an “*”, which indicates 40 ppm.

melting point [°C]	Structure (SMILES)	pest or weed control at 200 ppm [1] [%]	pest or weed control at 200 ppm [2] [%]
136 to 138	COC(=O)NCc1cc(-c2ccn(-c3ccc4c(c3)CC(O)CO4)n2)ccc1Cl (stereo not shown) [Compound 30, methyl N-[[2-chloro-5-[1-(3,4-dihydro-3-hydroxy-2H-1-benzopyran-6-yl)-1H-pyrazol-3-yl]phenyl]methyl]carbamate]	99	94
70 to 73	COC(=O)NCc1cc(-c2ccn(-c3ccc4c(c3)CC3(CO4)OCCO3)n2)ccc1Cl [Compound 28, methyl N-[[2-chloro-5-(1-spiro[2H-1-benzopyran-3(4H), 2′-[1,3]dioxolan]-6-yl-1H-pyrazol-3-yl)phenyl]methyl]carbamate]	99	90
245 to 247	COC(=O)NCc1cc(-c2ccn(-c3ccc4c(c3)C=C(C(=O)O)CO4)n2)ccc1Cl [Compound 24, 6-[3-[4-chloro-3-[[(methoxycarbonyl)amino]methyl]phenyl]-1H-pyrazol-1-yl]-2H-1-benzopyran-3-carboxylic acid]	89	0
185 to 187	COC(=O)NCc1cc(-c2ccn(-c3ccc4c(c3)C=C(C(=O)OC)CO4)n2)ccc1Cl [Compound 23, methyl 6-[3-[4-chloro-3-[[(methoxycarbonyl)amino]methyl]phenyl]-1H-pyrazol-1-yl]-2H-1-benzopyran-3-carboxylate]	73	0
161 to 162	COC(=O)NCc1cc(-c2ccn(-c3ccc4c(c3)CCCO4)n2)ccc1C [Compound 20, methyl N-[[5-[1-(3,4-dihydro-2H-1-benzopyran-6-yl)-1H-pyrazol-3-yl]-2-methylphenyl]methyl]carbamate]	100	90
104 to 106	COC(=O)NCc1cc(-c2ccn(-c3ccc4c(c3)CC(=O)CO4)n2)ccc1Cl [Compound 29, methyl N-[[2-chloro-5-[1-(3,4-dihydro-3-oxo-2H-1-benzopyran-6-yl)-1H-pyrazol-3-yl]phenyl]methyl]carbamate]	99	17

Continued, molecule first:

Structure (SMILES)	melting point [°C]	pest or weed control at 200 ppm [1] [%]	pest or weed control at 200 ppm [2] [%]
CC(=O)NCc1cc(-c2ccn(-c3ccc4c(c3)CCCO4)n2)ccc1Cl [Compound 2, N-[[2-chloro-5-[1-(3,4-dihydro-2H-1-benzopyran-6-yl)-1H-pyrazol-3-yl]-phenyl]methyl]acetamide]		100	53
COC(=O)NCc1cc(-n2ccc(-c3ccc4c(c3)OCO4)n2)ccc1Cl [Compound 6, methyl N-[[5-[3-(1,3-benzodioxol-5-yl)-1H-pyrazol-1-yl]-2-chlorophenyl]-methyl]carbamate]		100	95
CNC(=O)NCc1cc(-c2ccn(-c3ccc4c(c3)CCCO4)n2)ccc1Cl [Compound 4, N-[[2-chloro-5-[1-(3,4-dihydro-2H-1-benzopyran-6-yl)-1H-pyrazol-3-yl]-phenyl]methyl]-N′-methylurea]		82	0
COC(=O)NCc1cc(-c2ccn(-c3ccc4c(c3)CCCO4)n2)ccc1F [Compound 12, methyl N-[[5-[1-(3,4-dihydro-2H-1-benzopyran-6-yl)-1H-pyrazol-3-yl]-2-fluorophenyl]methyl]carbamate]	134 to 138	100	88
COC(=O)NCc1cc(-n2ccc(-c3ccc4c(c3)OCCO4)n2)ccc1Cl [Compound 7, methyl N-[[2-chloro-5-[3-(2,3-dihydro-1,4-benzodioxin-6-yl)-1H-pyrazol-1-yl]-phenyl]methyl]carbamate]		100	97
O=CNCc1cc(-c2ccn(-c3ccc4c(c3)CCCO4)n2)ccc1Cl [Compound 3, N-[[2-chloro-5-[1-(3,4-dihydro-2H-1-benzopyran-6-yl)-1H-pyrazol-3-yl]-phenyl]methyl]formamide]		99	0
COC(=O)NCc1cc(-n2ccc(-c3ccc4c(c3)CCCO4)n2)ccc1C [Compound 25, methyl N-[[5-[3-(3,4-dihydro-2H-1-benzopyran-6-yl)-1H-pyrazol-1-yl]-2-methylphenyl]methyl]carbamate]	152 to 154	100	0
COC(=O)NCc1cc(-n2ccc(-c3ccc4c(c3)CCCO4)n2)ccc1F [Compound 11, methyl N-[[5-[3-(3,4-dihydro-2H-1-benzopyran-6-yl)-1H-pyrazol-1-yl]-2-fluorophenyl]methyl]carbamate]	140 to 144	100	40
CC(=O)NCc1cc(-n2ccc(-c3ccc4c(c3)CCCO4)n2)ccc1Cl [Compound 8, N-[[2-chloro-5-[3-(3,4-dihydro-2H-1-benzopyran-6-yl)-1H-pyrazol-1-yl]phenyl]methyl]acetamide]		100	91
CNC(=O)NCc1cc(-n2ccc(-c3ccc4c(c3)CCCO4)n2)ccc1Cl [Compound 9, N-[[2-chloro-5-[3-(3,4-dihydro-2H-1-benzopyran-6-yl)-1H-pyrazol-1-yl]phenyl]methyl]-N′-methylurea]		100	9
COC(=O)NCc1cc(-n2ccc(-c3ccc4c(c3)CCCO4)n2)ccc1Cl [Compound 5, methyl N-[[2-chloro-5-[3-(3,4-dihydro-2H-1-benzopyran-6-yl)-1H-pyrazol-1-yl]phenyl]methyl]carbamate]		100	0
